Assay [1] relates to L6-myotubes. Briefly: Measurement of intracellular cAMP levels in differentiated L6-myotubes. Type of assay: cell-based. Particulars: for Emax at 10 µM: 0.25 h, agonist final concentration 1×10^−5, 15 min, differentiated cells, Table 1, read-out: Biological example 2 (intracellular cAMP levels, activity compared to that of isoproterenol). How it is done:
(§1) L6-myoblasts were grown in Dulbecco's Modified Eagle's Medium (DMEM) containing 4.5 g/l glucose supplemented with 10% fetal bovine serum, 2 mM L-Glutamine, 50 U/ml penicillin, 50 μg/ml streptomycin and 10 mM HEPES. Cells were plated at 1×10^5 cells per ml in 24-well plates. After reaching 90% confluence the cells were grown in medium containing 2% FBS for 7 days where upon cells differentiated into myotubes.
Differentiated cells were serum-starved overnight and stimulated with agonist, final concentration 1×10^−5, for 15 min in stimulation buffer (HBSS supplemented with 1% BSA, 5 mM HEPES and 1 mM IBMX, pH 7,4) The medium was then aspirated and to end the reaction 100 μL of 95% EtOH was added to each well of a 24-well plate and cells were kept in −20° C. over night. The EtOH was let to evaporate and 500 μL of lysis buffer (1% BSA, 5 mM HEPES and 0,3% Tween-20, pH 7,4) was added to each well before put in −80° C. for 30 min and then kept in −20° C. Intracellular cAMP levels were detected using an alpha screen cAMP kit (6760635D from Perkin Elmer). The activity for each compound is compared to that of isoproterenol.
(cAMP levels reflect the balance of adenylyl cyclase and phosphodiesterase activity.)

Assay [2] deals with L6-myotubes. Briefly: Glucose uptake (3H-2-deoxy-glucose) in differentiated L6-myotubes. The note with it: agonist final concentration 1×10^−5; for Emax at 10 µM: differentiated L6-myotubes, Table 1, read-out: Biological example 1 (glucose uptake, activity compared to that of isoproterenol); for Biological example 3: Table 2, glucose uptake assay of Biological Example 1. Type of assay: cell-based. The procedure:
as §1
Differentiated L6-myotubes were serum-starved overnight in medium containing 0,5% fatty-acid free BSA and stimulated with agonist, final concentration 1×10^−5. After 1 h 40 min cells were washed with warm, glucose free medium or PBS and another portion of agonist was added to glucose free medium. After 20 min the cells were exposed to 50 nM ^3H-2-deoxy-glucose for another 10 min before washed in ice cold glucose free medium or PBS and lysed in 0.2 M NaOH for 1 h in 60° C.

Counter-ions that a name gives are not always drawn.

On to `CC1(C)CCC[C@H]([C@H](O)c2cccc(F)c2)N1` [Example 1, (R)-((R)-6,6-Dimethylpiperidin-2-yl)(3-fluorophenyl)methanol], for which the Emax at 10 µM is under 25% with L6-myotubes [1] and 50 to 75% in the assay with L6-myotubes [2]. Taken in the same sequence, the figures for `CC1(C)CCC[C@H]([C@@H](O)c2cccc(F)c2)N1` [Example 2, (S)-((R)-6,6-Dimethylpiperidin-2-yl)(3-fluorophenyl)methanol] were under 25% and under 25%.

With `CC1(C)CCC[C@H]([C@H](O)c2cccc(O)c2)N1` [Example 3, 3-((R)-((R)-6,6-Dimethylpiperidin-2-yl)(hydroxy)methyl)phenol acetate], the Emax at 10 µM was under 25% in the assay with L6-myotubes [1] and 25 to 50% with L6-myotubes [2].

Consider `CC1(C)CCC[C@H]([C@@H](O)c2cccc(O)c2)N1` [Example 4, 3-((S)-((R)-6,6-Dimethylpiperidin-2-yl)(hydroxy)methyl)phenol acetate], for which the Emax at 10 µM is under 25% with L6-myotubes [1] and 25 to 50% in the assay with L6-myotubes [2]. The like results for `CC1(C)CCC[C@H]([C@H](O)c2ccccc2Cl)N1` [Example 5, (R)-(2-Chlorophenyl)((R)-6,6-dimethylpiperidin-2-yl)methanol hydrochloride] were, in that order, under 25% and 25 to 50%. Take `CC1(C)CCC[C@H]([C@@H](O)c2ccccc2Cl)N1` [Example 6, (S)-(2-Chlorophenyl)((R)-6,6-dimethylpiperidin-2-yl)methanol hydrochloride]: the Emax at 10 µM was under 25% in the assay with L6-myotubes [1] and over 75% with L6-myotubes [2].

For `CC1(C)CCC[C@H]([C@H](O)c2cccc(Cl)c2)N1` [Example 7, hydrochloride], the Emax at 10 µM with L6-myotubes [1] was under 25%; in the assay on L6-myotubes [2], 25 to 50%.

In the case of `CC1(C)CCC[C@H]([C@H](O)c2ccccc2F)N1` [Example 9, (R)-((R)-6,6-Dimethylpiperidin-2-yl)(2-fluorophenyl)methanol hydrochloride], the values for the Emax at 10 µM in the assay on L6-myotubes [1] and in the assay on L6-myotubes [2] were under 25% and 50 to 75%, respectively. In the case of `CC1(C)CCC[C@H]([C@@H](O)c2ccccc2F)N1` [Example 10, (S)-((R)-6,6-Dimethylpiperidin-2-yl)(2-fluorophenyl)methanol hydrochloride], the Emax at 10 µM in the assay with L6-myotubes [1] is 25 to 50%; in the assay on L6-myotubes [2] it was over 75%. As for `CC1(C)CC[C@H]([C@H](O)c2cccc(F)c2)N1` [Example 11, (R)-((R)-5,5-Dimethylpyrrolidin-2-yl)(3-fluorophenyl)methanol hydrochloride], the values for the Emax at 10 µM in the assay on L6-myotubes [1] and with L6-myotubes [2] were under 25% and over 75%, respectively.

Take `CC1(C)CC[C@H]([C@@H](O)c2cccc(F)c2)N1` [Example 12, (S)-((R)-5,5-Dimethylpyrrolidin-2-yl)(3-fluorophenyl)methanol hydrochloride]: the Emax at 10 µM in the assay with L6-myotubes [1] is under 25%; in the assay on L6-myotubes [2] it was 25 to 50%.

In the case of `CC1(C)CC[C@@H]([C@H](O)c2cccc(F)c2)N1` [Example 13, (R)-((S)-5,5-Dimethylpyrrolidin-2-yl)(3-fluorophenyl)methanol hydrochloride], the Emax at 10 µM with L6-myotubes [1] and with L6-myotubes [2] was under 25% throughout. As to `CC1(C)CC[C@@H]([C@@H](O)c2cccc(F)c2)N1` [Example 14, (S)-((S)-5,5-Dimethylpyrrolidin-2-yl)(3-fluorophenyl)methanol hydrochloride], the Emax at 10 µM in the assay with L6-myotubes [1] was under 25%; in the assay on L6-myotubes [2] it was 25 to 50%. On to `CC1(C)CC[C@H]([C@H](O)c2cccc(O)c2)N1` [Example 15, (R)-((R)-5,5-Dimethylpyrrolidin-2-yl)(hydroxy)methyl)phenol acetate], for which the Emax at 10 µM in the assay on L6-myotubes [1] is under 25%; in the assay on L6-myotubes [2], over 75%. `CC1(C)CC[C@H]([C@@H](O)c2cccc(O)c2)N1` [Example 16, (S)-((R)-5,5-Dimethylpyrrolidin-2-yl)(hydroxy)methyl)phenol acetate]: the Emax at 10 µM in the assay on L6-myotubes [1] was under 25%; in the assay on L6-myotubes [2], 50 to 75%.

As to `CC1(C)CC[C@@H]([C@H](O)c2cccc(O)c2)N1` [Example 17], the Emax at 10 µM with L6-myotubes [1] was under 25%; with L6-myotubes [2] it was 25 to 50%. Consider `CC1(C)CC[C@@H]([C@@H](O)c2cccc(O)c2)N1` [Example 18], for which the Emax at 10 µM with L6-myotubes [1] and in the assay on L6-myotubes [2] was under 25% throughout. Regarding `CC1(C)CC[C@H]([C@H](O)c2ccccc2F)N1` [Example 19, (R)-((R)-5,5-Dimethylpyrrolidin-2-yl)(2-fluorophenyl)methanol hydrochloride], the Emax at 10 µM is under 25% in the assay with L6-myotubes [1] and over 75% in the assay with L6-myotubes [2].

`CC1(C)CC[C@H]([C@@H](O)c2ccccc2F)N1` [Example 20, (S)-((R)-5,5-Dimethylpyrrolidin-2-yl)(2-fluorophenyl)methanol hydrochloride]: the Emax at 10 µM in the assay on L6-myotubes [1] is under 25%; in the assay with L6-myotubes [2], 25 to 50%. Taken in the same sequence, the figures for `CC1(C)CC[C@H]([C@H](O)c2ccc(F)cc2)N1` [Example 21, (R)-((R)-5,5-Dimethylpyrrolidin-2-yl)(4-fluorophenyl)methanol hydrochloride] were under 25% and 50 to 75%.

Consider `CC1(C)CC[C@H]([C@@H](O)c2ccc(F)cc2)N1` [Example 22, (S)-((R)-5,5-Dimethylpyrrolidin-2-yl)(4-fluorophenyl)methanol hydrochloride], for which the Emax at 10 µM in the assay on L6-myotubes [1] and with L6-myotubes [2] was under 25% throughout. Regarding `CC1(C)CC[C@H]([C@H](O)c2ccccc2Cl)N1` [Example 23, (R)-(2-Chlorophenyl)((R)-5,5-dimethylpyrrolidin-2-yl)methanol hydrochloride], the Emax at 10 µM in the assay with L6-myotubes [1] was under 25%; in the assay with L6-myotubes [2], over 75%. Turning to `CC1(C)CC[C@H]([C@@H](O)c2ccccc2Cl)N1` [Example 24, (S)-(2-Chlorophenyl)((R)-5,5-dimethylpyrrolidin-2-yl)methanol hydrochloride], the Emax at 10 µM in the assay on L6-myotubes [1] and in the assay on L6-myotubes [2] was under 25% each time. Consider `CC1(C)CC[C@H]([C@H](O)c2cccc(Cl)c2)N1` [Example 25, (R)-(3-Chlorophenyl)((R)-5,5-dimethylpyrrolidin-2-yl)methanol hydrochloride], for which the Emax at 10 µM is under 25% in the assay on L6-myotubes [1] and over 75% with L6-myotubes [2]. Consider `CCCC1(CCC)CC[C@H]([C@H](O)c2cccc(F)c2)N1` [Example 27, (R)-((R)-5,5-Dipropylpyrrolidin-2-yl)(3-fluorophenyl)methanol hydrochloride], for which the Emax at 10 µM was under 25% in the assay on L6-myotubes [1] and 50 to 75% in the assay on L6-myotubes [2].

Turning to `CCCC1(CCC)CC[C@H]([C@@H](O)c2cccc(F)c2)N1` [Example 28, (S)-((R)-5,5-Dipropylpyrrolidin-2-yl)(3-fluorophenyl)methanol hydrochloride], the Emax at 10 µM in the assay with L6-myotubes [1] and in the assay on L6-myotubes [2] was under 25% in each case.

For the compound `O[C@H](c1cccc(F)c1)[C@H]1CCC2(CC2)N1` [Example 29, (R)-(3-Fluorophenyl)((R)-4-azaspiro[2.4]heptan-5-yl)methanol hydrochloride], the Emax at 10 µM is under 25% with L6-myotubes [1] and 50 to 75% with L6-myotubes [2]. `O[C@@H](c1cccc(F)c1)[C@H]1CCC2(CC2)N1` [Example 30, (S)-(3-Fluorophenyl)((R)-4-azaspiro[2.4]heptan-5-yl)methanol hydrochloride]: the Emax at 10 µM with L6-myotubes [1] is under 25%; in the assay on L6-myotubes [2], 25 to 50%.

Consider `O[C@H](c1cccc(F)c1)[C@H]1CCC2(CCCC2)N1` [Example 31, (R)-(3-Fluorophenyl)((R)-1-azaspiro[4.4]nonan-2-yl)methanol maleate], for which the Emax at 10 µM is 25 to 50% with L6-myotubes [1] and 50 to 75% with L6-myotubes [2].

Regarding `O[C@@H](c1cccc(F)c1)[C@H]1CCC2(CCCC2)N1` [Example 32, (S)-(3-Fluorophenyl)((R)-1-azaspiro[4.4]nonan-2-yl)methanol maleate], the Emax at 10 µM with L6-myotubes [1] and with L6-myotubes [2] was under 25% throughout.

Consider `CC1(C)C[C@H]([C@H](O)c2cccc(F)c2)N1.Cl` [Example 33, (R)-((R)-4,4-dimethylazetidin-2-yl)(3-fluorophenyl)methanol hydrochloride], for which, in the assay with L6-myotubes [1] (Table 2, cAMP assay of Biological Example 2, agonist final concentration 1×10^−5), the “Biological example 4” value is “++ (between 75 and 50%)”. In addition, in the assay on L6-myotubes [2], the “Biological example 3” value was “+++ (more than 75% of that of isoproterenol)”. In the case of `CC1(C)CC[C@H]([C@@H](O)c2cc(F)c(N)c(F)c2)N1.Cl` [Example 51, (S)-(4-Amino-3,5-difluorophenyl)((R)-5,5-dimethylpyrrolidin-2-yl)methanol hydrochloride], the “Biological example 3” value with L6-myotubes [2] is listed as “+++ (more than 75% of that of isoproterenol)”.
